From PMC11256326, “Discovery of Heparin Mimetic, Potent, and Selective Inhibitors of Human Clotting Factor XIIIa” (ACS Omega, 2024)

Key:
[1] = test system: CaCo-2 heterogeneous human epithelial colorectal adenocarcinoma cells; assay: cell viability, Alamar Blue, CaCo-2; format: cell-based; conditions: CaCo-2, 10 μM, 3 days
Description: (§1) To further evaluate the selectivity as well as the potential toxicity of inhibitors, we studied their effects on the clotting times of normal human plasma as well as their effects on the proliferation of three cell lines. On the one hand, the inhibitors’ effects on activated partial thromboplastin time (APTT) and prothrombin time (PT) were measured, as described earlier under in vitro conditions,[52]−[55] using variable concentrations (0–2000 μM) (Table 3). […] On the other hand, the antiproliferative properties of inhibitors 13 and 16 were evaluated in three cell lines of breast (MCF-7), intestine (CaCo-2), and kidney (HEK-293) (Figure 5B), as described earlier.[56] […] Overall, inhibitor 16 can be considered for further development as a potent, selective, and nontoxic inhibitor of human FXIIIa.
(§2) HEK-293 human embryonic kidney cells,[66] CaCo-2 heterogeneous human epithelial colorectal adenocarcinoma cells,[67] and MCF-7 human breast carcinoma cells[68] were treated as reported previously.[69],[70] […] Subsequently, fluorescence readings (λEx. = 560 nm and λEm. = 590 nm) were taken using the Synergy H1 multiplate reader (BioTek) to quantify cell numbers both in the absence (utilizing distilled water as a control) and the presence of inhibitors 13 and 16 (at a concentration of 10 μM; incubated for 3 days). […]

FXIIIa = target: T1, FXIIIa (Homo sapiens, UniProt P00488); assay: FXIIIa-mediated fibrin(ogen) polymerization by SDS-PAGE; format: biochemical; conditions: for effect on FXIIIa-mediated fibrin(ogen) polymerization / γ–γ dimer formation: 5–3000 μM (13), 5–2000 μM (16)
T1 construct: purchased Haematologic Technologies; host or cells: human plasma
T1 sequence (P00488 39-732 limits assumed): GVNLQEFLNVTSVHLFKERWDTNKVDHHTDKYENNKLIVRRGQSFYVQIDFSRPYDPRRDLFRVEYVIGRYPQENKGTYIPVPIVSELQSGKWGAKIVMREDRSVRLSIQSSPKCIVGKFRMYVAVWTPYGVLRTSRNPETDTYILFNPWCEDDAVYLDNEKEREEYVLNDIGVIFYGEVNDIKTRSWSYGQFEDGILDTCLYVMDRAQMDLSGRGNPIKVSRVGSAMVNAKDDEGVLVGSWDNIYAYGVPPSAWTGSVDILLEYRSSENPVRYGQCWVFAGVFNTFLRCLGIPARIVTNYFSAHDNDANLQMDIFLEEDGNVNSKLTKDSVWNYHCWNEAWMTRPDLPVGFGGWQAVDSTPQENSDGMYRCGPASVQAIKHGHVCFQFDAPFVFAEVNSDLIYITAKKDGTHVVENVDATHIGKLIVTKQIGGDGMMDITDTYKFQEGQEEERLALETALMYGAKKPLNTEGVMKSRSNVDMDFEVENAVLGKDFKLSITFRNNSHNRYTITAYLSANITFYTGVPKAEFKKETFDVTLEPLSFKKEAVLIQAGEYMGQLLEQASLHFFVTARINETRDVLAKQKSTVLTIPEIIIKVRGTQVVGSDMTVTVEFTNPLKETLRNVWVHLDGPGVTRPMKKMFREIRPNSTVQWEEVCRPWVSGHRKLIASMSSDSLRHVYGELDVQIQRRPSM
Description: The effect of inhibitors 13 and 16 on FXIIIa-mediated fibrin(ogen) polymerization was investigated by sodium dodecyl sulfate-polyacrylamide gel electrophoresis (SDS-PAGE), as reported earlier.[36],[49] A solution containing 13 mg/mL fibrinogen and 2.0 μg/mL FXIIIa in Tris-HCl buffer of pH 7.4 containing 10 mM CaCl2 was either incubated with different concentrations of inhibitors 13 (5, 50, 500, 1000, 2000, and 3000 μM) or 16 (5, 50, 500, 1000, 1500, and 2000 μM) or buffer. The resulting mixture was then clotted in the presence of human α-thrombin (2.5 μg/mL). The clots were incubated for 24 h at room temperature before the addition of denaturing buffer and then incubated overnight at 25 °C. Samples were boiled in a water bath for 10 min before centrifugation at 12 000g at 20 °C for 3 min; the supernatants were examined by SDS-PAGE on homogeneous 10% cross-linked gels and stained with Coomassie Brilliant Blue. The first lane contains the protein markers, whereas the second lane contains the cross-linked fibrin(ogen) formed in the presence of human α-thrombin (Figure 7). […] In both cases, the inhibition appears to achieve 100% efficacy similar to the inhibition assay results.
The impact of inhibitors 13 and 16 on FXIIIa-mediated fibrin polymerization was further explored via gel electrophoresis, as previously described.[36],[49] […] The resulting clots were incubated for 24 h at room temperature before the addition of denaturing buffer containing 25 mM NaH2PO4, 1.9% (w/v) SDS, 5.7 M urea, and 1.9% (w/v) DTT, followed by overnight incubation at room temperature. Subsequently, the samples were boiled in a water bath for 10 min, followed by centrifugation at 12,000g at 20 °C for 3 min; the supernatants were then analyzed by SDS-PAGE on homogeneous 10% cross-linked gels and stained with Coomassie Brilliant Blue.

[2] = test system: HEK-293 human embryonic kidney cells; assay: cell viability, Alamar Blue, HEK-293; format: cell-based; conditions: HEK-293, 10 μM, 3 days
Description: as §1, §2

Row | Structure (SMILES) | effect on proliferation / cell viability [1] | efficacy of inhibition of fibrin(ogen) polymerization (FXIIIa) [%] | effect on FXIIIa-mediated fibrin(ogen) polymerization / γ–γ dimer formation (FXIIIa) | effect on proliferation / cell viability [2]
1 | Nc1c(/N=N/c2ccc(S(=O)(=O)CCOS(=O)(=O)O)cc2)c(S(=O)(=O)O)cc2cc(S(=O)(=O)O)c(/N=N/c3ccc(S(=O)(=O)CCOS(=O)(=O)O)cc3)c(O)c12 [compound 16] | does not significantly affect the proliferation | ~100 | concentration-dependently inhibited | does not significantly affect the proliferation
2 | Nc1c(S(=O)(=O)O)cc(Nc2ccc(Nc3nc(Cl)nc(Nc4ccccc4S(=O)(=O)O)n3)c(S(=O)(=O)O)c2)c2c1C(=O)c1ccccc1C2=O [compound 13] | does not significantly affect the proliferation | ~100 | concentration-dependently inhibited | does not significantly affect the proliferation
